Test results taken from the supplement of paper PMC8149375.

Tests used:
Conditions in all cases: treatment: drug alone; 5 days
[1] = tested on: UO-31; experiment: minimum viability across doses, drug alone, relative to DMSO (fraction); higher = less growth inhibition
Method: (§1)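 Primary HTS: 8 RCC cell lines treated with 8 doses (up to 10 uM) of each library drug alone for 5 days; viability read by CellTiter-Glo and normalised to DMSO. GI50 was fitted with XLfit (4-parameter), AUC is the area under the dose-response curve, and minimum viability is the lowest fraction of DMSO viability across doses.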

[2] = tested on: 769-P; experiment: as above
Method: as §1

[3] = tested on: 786-O; experiment: as above
Method: as §1

[4] = tested on: SN12C; experiment: as above
Method: as §1

[5] = tested on: ACHN; experiment: as above
Method: as §1

[6] = tested on: TK-10; experiment: as above
Method: as §1

[7] = tested on: CAKI-1; experiment: as above
Method: as §1

[8] = tested on: A498; experiment: as above
Method: as §1

[9] = tested on: UO-31; experiment: AUC of dose-response viability curve, drug alone (arbitrary (AUC of normalised viability)); higher = less growth inhibition
Method: as §1

[10] = tested on: 769-P; experiment: as above
Method: as §1

[11] = tested on: 786-O; experiment: as above
Method: as §1

[12] = tested on: SN12C; experiment: as above
Method: as §1

[13] = tested on: ACHN; experiment: as above
Method: as §1

[14] = tested on: TK-10; experiment: as above
Method: as §1

[15] = tested on: CAKI-1; experiment: as above
Method: as §1

[16] = tested on: A498; experiment: as above
Method: as §1

[17] = tested on: UO-31; experiment: GI50, drug alone; higher = less potent
Method: as §1

[18] = tested on: 769-P; experiment: GI50, drug alone; higher = less potent
Method: as §1

[19] = tested on: 786-O; experiment: GI50, drug alone; higher = less potent
Method: as §1

[20] = tested on: SN12C; experiment: GI50, drug alone; higher = less potent
Method: as §1

[21] = tested on: ACHN; experiment: GI50, drug alone; higher = less potent
Method: as §1

[22] = tested on: TK-10; experiment: GI50, drug alone; higher = less potent
Method: as §1

[23] = tested on: CAKI-1; experiment: GI50, drug alone; higher = less potent
Method: as §1

[24] = tested on: A498; experiment: GI50, drug alone; higher = less potent
Method: as §1

| GI50, drug alone [19] [nM] | GI50, drug alone [21] [nM] | Structure (SMILES) | minimum viability across doses [1] | minimum viability across doses [2] | minimum viability across doses [3] | minimum viability across doses [4] | minimum viability across doses [5] | minimum viability across doses [6] | minimum viability across doses [7] | minimum viability across doses [8] | AUC of dose-response viability curve [9] | AUC of dose-response viability curve [10] | AUC of dose-response viability curve [11] | AUC of dose-response viability curve [12] | AUC of dose-response viability curve [13] | AUC of dose-response viability curve [14] | AUC of dose-response viability curve [15] | AUC of dose-response viability curve [16] | GI50, drug alone [17] [nM] | GI50, drug alone [18] [nM] | GI50, drug alone [20] [nM] | GI50, drug alone [22] [nM] | GI50, drug alone [23] [nM] | GI50, drug alone [24] [nM] |
| --- | --- | --- | --- | --- | --- | --- | --- | --- | --- | --- | --- | --- | --- | --- | --- | --- | --- | --- | --- | --- | --- | --- | --- | --- |
| > 10000 | 4700 | CNC(=O)c1ccccc1Sc1ccc2c(/C=C/c3ccccn3)n[nH]c2c1 [Axitinib] | 0.672 | 0.436 | 0.661 | 0.375 | 0.287 | 0.748 | 0.367 | 0.779 | 4.27 | 3.08 | 3.02 | 3.06 | 3.13 | 3.07 | 2.86 | 4.06 | > 10000 | 6970 | 5600 | > 10000 | 2870 | > 10000 |
| 150 | 223 | Cn1c(=O)n(-c2ccc(C(C)(C)C#N)cc2)c2c3cc(-c4cnc5ccccc5c4)ccc3ncc21 [BEZ235 (NVP-BEZ235)] | 0.00561 | 0.165 | 0.139 | 0.189 | 0.0714 | 0.157 | 0.0875 | 0.0718 | 1.69 | 2.02 | 1.74 | 1.96 | 1.86 | 2.11 | 1.99 | 2.03 | 152 | 301 | 297 | 489 | 294 | 303 |
| 2250 | 747 | CCN1CCN(c2ccc(Nc3cc(N(C)C(=O)Nc4c(Cl)c(OC)cc(OC)c4Cl)ncn3)cc2)CC1 [BGJ398 (NVP-BGJ398)] | 0.401 | 0.631 | 0.218 | 0.385 | 0.111 | 0.327 | 0.133 | 0.92 | 2.98 | 3.22 | 2.7 | 2.91 | 2.28 | 2.68 | 2.1 | 3.84 | 7580 | > 10000 | 6980 | 3230 | 519 | > 10000 |
| 12.3 | 130 | CC[C@@H]1C(=O)N(C)c2cnc(Nc3ccc(C(=O)N[C@H]4CC[C@H](N5CCN(CC6CC6)CC5)CC4)cc3OC)nc2N1C(C)C [BI6727 (Volasertib)] | 0.012 | 0.0308 | 0.00304 | 0.0643 | 0.0122 | 0.0289 | 0.0881 | 0.0429 | 2.07 | 1.66 | 0.673 | 1.71 | 1.87 | 1.93 | 2.01 | 2.78 | 58.1 | 126 | 123 | 293 | 157 | 2030 |
